Read-outs that look alike come from different tables or passages of the source.
Columns and labels:
Test in all cases: NCI SRB assay
SF-539 = format: cell-based, human
UACC-257 = format: cell-based, human; conditions: for CC50: read-out: LC50 (the source's name)
DU-145 = format: cell-based, human; conditions: for CC50: read-out: LC50 (the source's name)
OVCAR-3 = format: cell-based, human
UO-31 = format: cell-based, human; conditions: for CC50: read-out: LC50 (the source's name)
HS 578 T = format: cell-based, human; conditions: for CC50: Hs-578T, read-out: LC50 (the source's name)
OVCAR-5 = format: cell-based, human; conditions: for CC50: read-out: LC50 (the source's name)
ACHN = format: cell-based, human; conditions: for GI50 / TGI / CC50: 5-dose; for CC50: read-out: LC50 (the source's name)
RXF 393 = format: cell-based, human; conditions: for CC50: read-out: LC50 (the source's name)
MDA-MB-231 = format: cell-based; conditions: for CC50: read-out: LC50 (the source's name)
CCRF-CEM = format: cell-based, human; conditions: for GI50 / TGI / CC50: 5-dose; for CC50: read-out: LC50 (the source's name)
SR = format: cell-based, human
[1] = Homo sapiens, UO-31, UO-31, 5-dose

`Cc1ccc(-c2nc(Nc3ccccc3C(=O)O)c3ccccc3n2)cc1` [6b, 2-((2-(p-Tolyl)quinazolin-4-yl)amino)benzoic acid] showed a GI50 (SF-539; Homo sapiens, SF-539, 5-dose) of 11.9 µM, a CC50 (SF-539; Homo sapiens, SF-539, 5-dose, read-out: LC50 (the source's name)) of 67.2 µM and a GI% (SF-539; SF-539, 10 μM) of 79%. For the same molecule, the “Growth Percent” value (SF-539; SF-539, 1.00E-5 Molar) was 21.26%, the TGI (SF-539; SF-539, 5-dose) was 28.3 µM and the TGI (SF-539; SF-539, 5-dose, listed as D - 835857) was 2.83E-5 Molar. The CC50 (UACC-257; Homo sapiens, UACC-257, UACC-257, 5-dose) was over 100 µM, the GI50 (UACC-257; Homo sapiens, UACC-257, 5-dose) was 15.3 µM and the GI% (UACC-257; UACC-257, 10 μM) was 71%. The “Growth Percent” value (UACC-257; UACC-257, 1.00E-5 Molar) was 28.64%, the TGI (UACC-257; UACC-257, 5-dose) was 90.3 µM and the TGI (UACC-257; UACC-257, 5-dose, listed as D - 835857) was 9.03E-5 Molar. The CC50 (UACC-257; UACC-257, 5-dose) was under 100 µM, the GI% (DU-145; DU-145, 10 μM) was 81% and the “Growth Percent” value (DU-145; DU-145, 1.00E-5 Molar) was 19.37%. The TGI (DU-145; DU-145, 5-dose) was under 100 µM, the TGI (DU-145; DU-145, 5-dose, listed as D - 835857) was over 1.00E-4 Molar and the CC50 (DU-145; DU-145, 5-dose) was under 100 µM. The CC50 (DU-145; Homo sapiens, DU-145, DU-145, 5-dose) was over 100 µM, the GI50 (DU-145; Homo sapiens, DU-145, 5-dose) was 17.7 µM and the GI50 (OVCAR-3; Homo sapiens, OVCAR-3, 5-dose) was 13.1 µM. The CC50 (OVCAR-3; Homo sapiens, OVCAR-3, 5-dose, read-out: LC50 (the source's name)) was over 100 µM, the GI% (OVCAR-3; OVCAR-3, 10 μM) was 94% and the “Growth Percent” value (OVCAR-3; OVCAR-3, 1.00E-5 Molar) was 6.01%. For the same molecule, the TGI (OVCAR-3; OVCAR-3, 5-dose) was 5.13E-5 Molar, the GI50 (UO-31; [1]) was 7.33 µM and the CC50 (UO-31; [1]) was over 100 µM. For the same molecule, the GI% (UO-31; UO-31, 10 μM) was 87%, the “Growth Percent” value (UO-31; UO-31, 1.00E-5 Molar) was 12.56% and the GI50 (UO-31; UO-31, 5-dose) was 7.3 µM. It also gave a TGI (UO-31; UO-31, 5-dose) of 77.9 µM, a TGI (UO-31; UO-31, 5-dose, listed as D - 835857) of 7.79E-5 Molar and a CC50 (UO-31; UO-31, 5-dose) of under 100 µM. For the same molecule, the GI% (HS 578 T; HS 578 T, 10 μM) was 109%, the “Growth Percent” value (HS 578 T; HS 578T, 1.00E-5 Molar) was -9.53% and the TGI (HS 578 T; HS 578 T, 5-dose) was 67.0 µM. It also gave a TGI (HS 578 T; HS 578T, 5-dose) of 6.70E-5 Molar, a CC50 (HS 578 T; Homo sapiens, HS 578 T, 5-dose) of under 100 µM and a CC50 (HS 578 T; Homo sapiens, HS 578T, 5-dose) of over 100 µM. The GI50 (HS 578 T; Homo sapiens, HS 578 T, 5-dose) was 10.2 µM, the CC50 (OVCAR-5; Homo sapiens, OVCAR-5, OVCAR-5, 5-dose) was over 100 µM and the GI50 (OVCAR-5; Homo sapiens, OVCAR-5, 5-dose) was 21.8 µM. The GI% (OVCAR-5; OVCAR-5, 10 μM) was 34%, the “Growth Percent” value (OVCAR-5; OVCAR-5, 1.00E-5 Molar) was 65.92% and the TGI (OVCAR-5; OVCAR-5, 5-dose) was 68.9 µM. For the same molecule, the TGI (OVCAR-5; OVCAR-5, 5-dose, listed as D - 835857) was 6.89E-5 Molar, the CC50 (OVCAR-5; OVCAR-5, 5-dose) was under 100 µM and the GI% (ACHN; 10 μM) was 92%. The “Growth Percent” value (ACHN; 1.00E-5 Molar) was 7.89%, the GI50 (ACHN) was 6.4 µM and the TGI (ACHN) was 91.1 µM. For the same molecule, the TGI (ACHN; listed as D - 835857) was 9.11E-5 Molar, the CC50 (ACHN) was under 100 µM and the GI50 (ACHN; Homo sapiens) was 6.44 µM. The CC50 (ACHN; Homo sapiens) was over 100 µM, the CC50 (RXF 393; Homo sapiens, RXF 393, RXF 393, 5-dose) was over 100 µM and the GI50 (RXF 393; Homo sapiens, RXF 393, 5-dose) was 13.1 µM. It also gave a TGI (RXF 393; RXF 393, 5-dose) of 65.9 µM, a TGI (RXF 393; RXF 393, 5-dose, listed as D - 835857) of 6.59E-5 Molar and a CC50 (RXF 393; RXF 393, 5-dose) of under 100 µM. The GI50 (MDA-MB-231; Homo sapiens, MDA-MB-231) was 17.2 µM, the CC50 (MDA-MB-231; Homo sapiens, MDA-MB-231, MDA-MB-231, 5-dose) was under 100 µM and the CC50 (MDA-MB-231; Homo sapiens, MDA-MB-231, MDA-MB-231/ATCC, 5-dose) was over 100 µM. For the same molecule, the GI% (MDA-MB-231; MDA-MB-231, 10 μM) was 65%, the TGI (MDA-MB-231; MDA-MB-231, 5-dose) was 59.7 µM and the “Growth Percent” value (MDA-MB-231; MDA-MB-231/ATCC, 1.00E-5 Molar) was 35.40%. The TGI (MDA-MB-231; MDA-MB-231/ATCC, 5-dose) was 5.97E-5 Molar, the GI% (CCRF-CEM; 10 μM) was 87% and the “Growth Percent” value (CCRF-CEM; 1.00E-5 Molar) was 12.80%. It also gave a GI50 (CCRF-CEM) of 5.7 µM, a TGI (CCRF-CEM) of under 100 µM and a TGI (CCRF-CEM; listed as D - 835857) of over 1.00E-4 Molar. The CC50 (CCRF-CEM) was under 100 µM, the GI50 (CCRF-CEM; Homo sapiens) was 5.72 µM and the CC50 (CCRF-CEM; Homo sapiens) was over 100 µM. For the same molecule, the GI% (SR; 10 μM) was 81%, the “Growth Percent” value (SR; 1.00E-5 Molar) was 18.56% and the LC50 (50% lethal concentration) (SR; 5-dose) was under 100 µM. The TGI (SR; 5-dose) was under 100 µM, the TGI (SR; 5-dose, listed as D - 835857) was over 1.00E-4 Molar and the GI50 (SR; Homo sapiens, 5-dose) was 10.3 µM. For the same molecule, the LC50 (50% lethal concentration) (SR; Homo sapiens, 5-dose) was over 100 µM.
